Source: ChEMBL document CHEMBL5512666, “Selenization of Small Molecule Drugs: A New Player on the Board” (J Med Chem, 2024)
pEC50, pIC50: −log10 of the molar value. Converted amounts (≈) assume the structure as drawn.

How the values were obtained:
[1] = Antioxidant activity assessed as reduction in peroxynitrite mediated L-tyrosine nitration by measuring remaining activity relative to control; type: functional; set-up: concentration or dose not given beside the values
[2] = Antioxidant activity assessed as inhibition of peroxynitrite mediated L-tyrosine nitration in sodium phosphate buffer at pH 7.5 incubated for 7 mins by RP-HPLC analysis; type: functional
[3] = test system: Candida tropicalis; experiment: Antifungal activity against Candida tropicalis CGMCC 2.3739; type: functional
[4] = test system: Candida parapsilosis; experiment: Antifungal activity against Candida parapsilosis 22019; type: functional; settings: Lodderomyces parapsilosis
[5] = test system: Cryptococcus neoformans; experiment: Antifungal activity against Cryptococcus neoformans CGMCC 2.3161; type: functional
[6] = test system: Pichia kudriavzevii; experiment: Antifungal activity against Candida krusei AS 2.1045; type: functional
[7] = test system: Nakaseomyces glabratus; experiment: Antifungal activity against Candida glabrata; type: functional
[8] = test system: Aspergillus fumigatus; experiment: Antifungal activity against Aspergillus fumigatus CGMCC 3.7795; type: functional
[9] = test system: Candida albicans; experiment: Antifungal activity against Candida albicans CPCC 400616; type: functional
[10] = test system: Candida albicans; experiment: Antifungal activity against Candida albicans SC5314; type: functional
[11] = test system: Human alphaherpesvirus 2; experiment: Antiviral activity against HSV-2 infected in African green monkey Vero cells assessed as reduction in virus-induced cytopathic effect incubated for 3 days by MTT assay; type: functional, organism-based; settings: Human alphaherpesvirus 2, Vero, 72 h
[12] = test system: Human alphaherpesvirus 3; experiment: Antiviral activity against VZV infected in African green monkey Vero cells assessed as reduction in virus-induced cytopathic effect incubated for 3 days by MTT assay; type: functional, organism-based; settings: Human alphaherpesvirus 3, Vero, 72 h
[13] = test system: Human alphaherpesvirus 1; experiment: Antiviral activity against HSV-1 infected in African green monkey Vero cells assessed as reduction in virus-induced cytopathic effect incubated for 3 days by MTT assay; type: functional, organism-based; settings: Human alphaherpesvirus 1, Vero, 72 h
[14] = test system: Human betaherpesvirus 5; experiment: Antiviral activity against […] infected in African green monkey Vero cells assessed as reduction in virus-induced cytopathic effect incubated for 3 days by MTT assay; type: functional, organism-based; settings: Human betaherpesvirus 5, Vero, 72 h
[15] = Antiproliferative activity against human HEY A8 cells; type: functional, cell-based
[16] = test system: ES-2; experiment: Antiproliferative activity against human ES2 cells; type: functional, cell-based
[17] = test system: HEK-293T; experiment: Antiproliferative activity against HEK293T; type: functional, cell-based; settings: Homo sapiens
[18] = test system: OVCAR-3; experiment: Antiproliferative activity against human OVCAR-3 cells; type: functional, cell-based
[19] = Antiproliferative activity against human OVCAR-10 cells; type: functional, cell-based
[20] = target: Lactoperoxidase (Homo sapiens, UniProt P22079); experiment: Inhibition of LPO (unknown origin)-mediated L-tyrosine nitration incubated for 20 mins in presence of H2O2 and sodium nitrite by RP-HPLC analysis
[21] = test system: A549; experiment: Cytotoxicity against human A549 cells measured after 72 hrs; type: functional, cell-based; settings: A549, 72 h
[22] = test system: HeLa; experiment: Cytotoxicity against human HeLa cells measured after 72 hrs; type: functional, cell-based
[23] = Cytotoxicity against mouse L929 cells measured after 72 hrs; type: toxicity, cell-based
[24] = Cytotoxicity against mouse NIH3T3 cells measured after 72 hrs; type: toxicity, cell-based
[25] = test system: HCT-116; experiment: Cytotoxicity against human HCT-116 cells measured after 72 hrs; type: functional, cell-based; settings: HCT-116, 72 h
[26] = test system: MHCC97H; experiment: Antiproliferative activity against human MHCC97H cells assessed as reduction in cell viability incubated for 48 hrs by MTT assay; type: functional, cell-based
[27] = Inhibition of TrxR (unknown origin) expressed in MHCC97H cells incubated for 24 hrs by colorimetric assay; type: cell-based, Homo sapiens
[28] = test system: SMMC-7721; experiment: Cytotoxicity against human SMMC-7721 cells assessed as inhibition of cell growth incubated for 96 hrs by MTT assay; type: functional, cell-based; settings: SMMC-7721, 96 h
[29] = test system: HeLa; experiment: Cytotoxicity against human HeLa cells assessed as inhibition of cell growth incubated for 96 hrs by MTT assay; type: functional, cell-based
[30] = test system: A549; experiment: Cytotoxicity against human A549 cells assessed as inhibition of cell growth incubated for 96 hrs by MTT assay; type: functional, cell-based; settings: A549, 96 h
[31] = test system: HepG2; experiment: Cytotoxicity against human HepG2 cells assessed as inhibition of cell growth incubated for 96 hrs by MTT assay; type: functional, cell-based; settings: HepG2, 96 h

Chain of Lactoperoxidase (P22079 whole entry): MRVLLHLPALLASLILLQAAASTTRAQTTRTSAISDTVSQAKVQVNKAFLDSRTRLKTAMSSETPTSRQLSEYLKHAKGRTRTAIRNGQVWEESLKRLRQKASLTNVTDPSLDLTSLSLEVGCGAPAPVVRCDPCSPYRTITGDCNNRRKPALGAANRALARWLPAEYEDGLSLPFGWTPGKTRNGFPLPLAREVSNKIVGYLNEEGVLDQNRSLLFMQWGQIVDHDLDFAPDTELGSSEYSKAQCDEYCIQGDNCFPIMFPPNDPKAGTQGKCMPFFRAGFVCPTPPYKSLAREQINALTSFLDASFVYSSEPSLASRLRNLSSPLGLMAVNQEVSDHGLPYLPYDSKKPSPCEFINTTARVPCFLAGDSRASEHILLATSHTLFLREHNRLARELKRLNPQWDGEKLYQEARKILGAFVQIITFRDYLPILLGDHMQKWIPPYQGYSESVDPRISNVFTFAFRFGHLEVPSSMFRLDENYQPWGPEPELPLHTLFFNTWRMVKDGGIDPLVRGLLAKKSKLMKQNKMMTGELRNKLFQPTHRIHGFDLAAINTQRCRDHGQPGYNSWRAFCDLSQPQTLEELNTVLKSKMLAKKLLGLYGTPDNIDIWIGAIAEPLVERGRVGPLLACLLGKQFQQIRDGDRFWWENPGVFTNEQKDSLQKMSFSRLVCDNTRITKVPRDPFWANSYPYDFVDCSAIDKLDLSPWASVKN

With `Cn1ccn(C)c1=[Se]` the Activity [1] was 66.5% and the pIC50 [2] was 4.91.

Compound `COc1cccc(Cn2ccn(C)c2=[Se])c1` has a pIC50 [2] of 5.11.

With `CN1C=CN(CCn2ccn(C)c2=[Se])C1` the Activity [1] was 68.4%.

`Cc1cccc(C)c1[Se]C(Cn1ccnc1)c1ccc(Cl)cc1` (stereo unspecified) showed an MIC [3] of 0.06 µg/mL (≈ 0.154 µM), an MIC [4] of 0.03 µg/mL (≈ 0.077 µM) and an MIC [5] of 0.13 µg/mL (≈ 0.334 µM). It also gave an MIC [6] of 0.03 µg/mL (≈ 0.077 µM), an MIC [7] of 0.13 µg/mL (≈ 0.334 µM) and an MIC [8] of 1 µg/mL (≈ 2.57 µM). For the same compound, the MIC [9] was 0.03 µg/mL (≈ 0.077 µM) and the MIC [10] was 0.03 µg/mL (≈ 0.077 µM).

For `C=C1N(C)C=CN1CCCCCn1ccn(C)c1=[Se]`, the Activity [1] was 45%.

`C=C1N(C)C=CN1CCCn1ccn(C)c1=[Se]` showed an Activity [1] of 29%.

With `NC1=Nc2c(ncn2C[Se]C(CO)CO)C(N)N1` (stereo unspecified) the pEC50 [11] was < 4.00, the pEC50 [12] was < 4.00 and the pEC50 [13] was < 4.00. It also gave a pEC50 [14] of 4.46.

With `O=C1N[C@H]2[C@H](CS[C@H]2CCCCC(=O)[Se]Cc2ccccc2)N1` the pIC50 [15] was 4.76, the pIC50 [16] was 4.79 and the pIC50 [17] was 5.18. The pIC50 [18] was 4.43 and the pIC50 [19] was 4.33.

In the case of `O=C(O)CCCC[C@@H]1SC[C@@H]2NC(=O)N[C@@H]21` [BIOTIN], the pIC50 [15] was < 4.00, the pIC50 [16] was < 4.00 and the pIC50 [17] was < 4.00. The pIC50 [18] was < 4.00 and the pIC50 [19] was < 4.00.

`COc1cccc(Cn2ccn(Cc3cccc(OC)c3)c2=S)c1` gave a pIC50 [20] of 3.86.

For `CC[C@@]1(O)C(=O)OCc2c1cc1n(c2=O)Cc2cc3ccccc3nc2-1` [CAMPTOTHECIN], the pIC50 [21] was 7.68, the pIC50 [22] was 6.97 and the IC50 at 72 h [23] was 1.13 µM. The IC50 at 72 h [24] was 0.086 µM and the pIC50 [25] was 7.96.

Compound `N#Cc1cccc(-c2ccc(=O)n(Cc3cccc(-c4ncc([Se]CCCN5CCCCC5)cn4)c3)n2)c1` has a pIC50 [26] of 7.42 and a pIC50 [27] of 6.18.

Work on `C[Se]C(=O)CCCC[C@@H]1SC[C@@H]2NC(=O)N[C@@H]21` yielded a pIC50 [15] of 4.69, a pIC50 [16] of 5.01 and a pIC50 [17] of 4.50. It also gave a pIC50 [18] of 4.65 and a pIC50 [19] of 4.60.

For `CN1CCC(COc2cnc(-c3cccc(Cn4nc(-c5cccc(C#N)c5)ccc4=O)c3)nc2)CC1` [TEPOTINIB], the pIC50 [26] was 7.80 and the pIC50 [27] was < 5.00.

For `Nc1ccn([C@@H]2O[C@H](CO)[C@@H](O)C2(F)F)c(=O)n1` [GEMCITABINE], the pIC50 [28] was 6.34, the pIC50 [29] was 5.41 and the pIC50 [30] was 6.16. It also gave a pIC50 [31] of 5.61.

With `O=C(Nc1ccn([C@@H]2O[C@H](CO)[C@@H](O)C2(F)F)c(=O)n1)OC1C[Se][Se]C1` the pIC50 [28] was 6.48, the pIC50 [29] was 6.06 and the pIC50 [30] was 6.96. For the same compound, the pIC50 [31] was 6.33.

`C=Cn1ccn(C)c1=[Se]` gave an Activity [1] of 71%.

In the case of `NC1=Nc2c(ncn2C[Se]CCO)C(N)N1` (stereo unspecified), the pEC50 [11] was 4.49, the pEC50 [12] was < 4.00 and the pEC50 [13] was 4.81. The pEC50 [14] was < 4.00.

With `Cc1cccc(C)c1[Se]C(Cn1ccnc1)c1ccc(F)cc1` (stereo unspecified) the MIC [3] was 0.06 µg/mL (≈ 0.161 µM), the MIC [4] was 0.13 µg/mL (≈ 0.348 µM) and the MIC [5] was 0.13 µg/mL (≈ 0.348 µM). It also gave an MIC [6] of 0.06 µg/mL (≈ 0.161 µM), an MIC [7] of 0.25 µg/mL (≈ 0.67 µM) and an MIC [8] of 2 µg/mL (≈ 5.36 µM). For the same compound, the MIC [9] was 0.03 µg/mL (≈ 0.0804 µM) and the MIC [10] was 0.03 µg/mL (≈ 0.0804 µM).

For `Cn1cc[nH]c1=S` [METHIMAZOLE], the pIC50 [20] was 6.29.

In the case of `CNC1NC(N)=Nc2c1ncn2C[Se]C(CO)CO` (stereo unspecified), the pEC50 [11] was < 4.00, the pEC50 [12] was < 4.00 and the pEC50 [13] was < 4.00. It also gave a pEC50 [14] of 4.49.

`N#C[Se]CCOC(=O)CCCC[C@@H]1SC[C@@H]2NC(=O)N[C@@H]21` showed a pIC50 [15] of 4.85, a pIC50 [16] of 5.01 and a pIC50 [17] of 4.11. It also gave a pIC50 [18] of 4.93 and a pIC50 [19] of 4.73.

For `N#Cc1cccc(-c2ccc(=O)n(Cc3cccc(-c4ncc([Se]CCCN5CCOCC5)cn4)c3)n2)c1`, the pIC50 [26] was 7.54 and the pIC50 [27] was 6.93.
